What was measured:
[1] = tested on: Mycosphaerella arachidis; assay: Action against Mycosphaerella arachidis, liquid culture (early leaf spot); type: cell-based; settings: PDB potato dextrose broth, 0.02% active ingredient, 24° C., photometrically after 6-7 days, read-out: inhibition of growth
Description: (§1) Conidia of the fungus from cryogenic storage were directly mixed into nutrient broth (PDB potato dextrose broth). After placing a (DMSO) solution of the test compounds (0.02% active ingredient) into a microtiter plate (96-well format) the nutrient broth containing the fungal spores was added. The test plates were incubated at 24° C. and the inhibition of growth was measured photometrically after 6-7 days.

[2] = tested on: Botryotinia fuckelianal; assay: Action against Botryotinia fuckeliana, liquid culture (gray mould); type: cell-based; settings: Botrytis cinerea; nutrient broth, 0.02% active ingredient, 24° C., photometrically after 3-4 days; read-out: inhibition of growth
Description: as §1, with “broth.” for “broth (PDB potato dextrose broth).”, “solution (0.02% active ingredient)” for “solution”, “compounds” for “compounds (0.02% active ingredient)”, “determined” for “measured”, “3-4” for “6-7”

[3] = tested on: Pyrenophora teres; assay: Action against Pyrenophora teres (net blotch) on barley leaf segments; type: in vivo; settings: foliar, 96 h, 0.02% active ingredient, assessed 4 days after inoculation, read-out: inhibition (preventive fungicidal activity)
Description: (§2) Barley leaf segments were placed on agar in multiwell plates (24-well format) and sprayed with test solutions (0.02% active ingredient). After drying, the leaf disks were inoculated with a spore suspension of the fungus. After appropriate incubation the activity of a compound was assessed 4 days after inoculation as preventive fungicidal activity.

[4] = tested on: Erysiphe Graminis f.sp. Tritici; assay: Action against Erysiphe graminis f.sp. tritici (wheat powdery mildew), leaf segments, preventive; type: in vivo; settings: Blumeria graminis, foliar, 168 h, 0.02% active ingredient, assessed 7 days after inoculation, read-out: inhibition (preventive fungicidal activity)
Description: as §2, with “Wheat leaf” for “Barley leaf”, “assessed 7” for “assessed 4”

[5] = tested on: Puccinia Recondita; assay: Preventive action against Puccinia recondita (brown rust) on wheat leaf segments; type: in vivo; settings: foliar, 192 h, 0.02% active ingredient, assessed 8 days after inoculation, read-out: inhibition (preventive fungicidal activity)
From the text: Wheat leaf segments were placed on agar in multiwell plates (24-well format) and sprayed with test solutions (0.02% active ingredient). After drying, the leaf disks were inoculated with a spore suspension of the fungus.

[6] = tested on: Puccinia Recondita; assay: Curative action against Puccinia recondita (brown rust) on wheat leaf segments; type: in vivo; settings: foliar, sprayed one day after inoculation, 0.02% active ingredient, assessed 8 days after inoculation, read-out: inhibition (curative fungicidal activity)
From the text: Wheat leaf segments were placed on agar in multiwell plates (24-well format) and inoculated with a spore suspension of the fungus. One day after inoculation the leaf segments were sprayed with test solutions (0.02% active ingredient).

[7] = tested on: Phaeosphaeria nodorum; assay: Preventive action against Phaeosphaeria nodorum (glume blotch) on wheat leaf segments; type: in vivo; settings: Parastagonospora nodorum, foliar, 96 h, 0.02% active ingredient, assessed 4 days after inoculation, read-out: inhibition (preventive fungicidal activity)
Description: as §2, with “Wheat leaf segments” for “Barley leaf segments”, “agar in a multiwell plate” for “agar in multiwell plates”, “a multiwell plate (24-well format)” for “in multiwell plates (24-well format)”

SMILES | inhibition at 0.02 % strength [1] [%] | inhibition at 0.02 % strength [2] [%] | inhibition at 0.02 % strength [3] [%] | inhibition at 0.02 % strength [4] [%] | inhibition at 0.02 % strength [5] [%] | inhibition at 0.02 % strength [6] [%] | inhibition at 0.02 % strength [7] [%] | melting point [°C]
COC(c1csc(Cl)c1Cl)C(C)N(OC)C(=O)c1cn(C)nc1C(F)F (stereo not drawn) [1.037 (diastereoisomer pair 1), 3-difluoromethyl-1-methyl-1H-pyrazole-4-carboxylic acid methoxy-[2-methoxy-1-methyl-2-(4,5-dichlorothiophen-3-yl)ethyl]amide] | ≥ 80 | ≥ 80 | ≥ 80 | ≥ 80 | ≥ 80 | – | – | –
COC(c1csc(Cl)c1Cl)C(C)N(OC)C(=O)c1cn(C)nc1C(F)F (stereo not drawn) [1.037 (diastereoisomer pair 2), 3-difluoromethyl-1-methyl-1H-pyrazole-4-carboxylic acid methoxy-[2-methoxy-1-methyl-2-(4,5-dichlorothiophen-3-yl)ethyl]amide] | – | – | – | – | – | ≥ 80 | – | –
CON(C(=O)c1cn(C)nc1C(F)F)C(C)Cc1c(Cl)sc(Cl)c1Cl (centres unmarked) [Compound 1.001, 3-difluoromethyl-1-methyl-1H-pyrazole-4-carboxylic acid methoxy-[1-methyl-2-(2,4,5-trichlorothiophene-3-yl)ethyl]amide] | ≥ 80 | ≥ 80 | ≥ 80 | ≥ 80 | ≥ 80 | ≥ 80 | ≥ 80 | 70 to 72
COC(c1c(Cl)sc(Cl)c1Cl)C(C)N(OC)C(=O)c1cn(C)nc1C(F)F (centres unmarked) [Compound 1.016, 3-difluoromethyl-1-methyl-1H-pyrazole-4-carboxylic acid methoxy-[2-methoxy-1-methyl-2-(2,4,5-trichlorothiophene-3-yl)ethyl]amide] | ≥ 80 | ≥ 80 | ≥ 80 | ≥ 80 | ≥ 80 | ≥ 80 | ≥ 80 | 113 to 116
COC(c1csc(Cl)c1Cl)C(C)N(OC)C(=O)c1cn(C)nc1C(F)F (centres unmarked) [Compound 1.037, 3-difluoromethyl-1-methyl-1H-pyrazole-4-carboxylic acid methoxy-[2-methoxy-1-methyl-2-(4,5-dichlorothiophen-3-yl)ethyl]amide] | – | – | – | – | – | – | – | 80 to 83

Reference: patent publication US8273783B2, “Microbiocides” (Syngenta Crop Protection LLC, priority 2009, dated 2012)
